Assay results: patent US7618990B2, “Oxazolidone derivatives as PR modulators” (Wyeth, priority 2006, dated 2009)

Tests used:
[1] = system: alkaline phosphatase activity in T47D cells; assay: Effects of progestins and antiprogestins on alkaline phosphatase activity in T47D cells (antagonist mode); assay type: cell-based; details: Homo sapiens, in the presence of 1 nM progesterone, read-out: T47D Alkaline Phosphatase Activity IC50 (nM) or % inhibition; for IC50: 24 h; for inhibition at 3 µM: % inhibition at 3000 nM
[2] = target: T1, progesterone receptor (PR) (Homo sapiens, UniProt P06401); assay: Progesterone receptor whole cell competition binding assay using T47D cells; details: intact T47D cells, 3 nM 3H-progesterone, 3 h at 37° C.
T1 construct: in live, intact (whole) cells using the human breast carcinoma T47D cell line; endogenous in cells; host or cells: T47D human breast carcinoma cells
T1 sequence (P06401 1-933): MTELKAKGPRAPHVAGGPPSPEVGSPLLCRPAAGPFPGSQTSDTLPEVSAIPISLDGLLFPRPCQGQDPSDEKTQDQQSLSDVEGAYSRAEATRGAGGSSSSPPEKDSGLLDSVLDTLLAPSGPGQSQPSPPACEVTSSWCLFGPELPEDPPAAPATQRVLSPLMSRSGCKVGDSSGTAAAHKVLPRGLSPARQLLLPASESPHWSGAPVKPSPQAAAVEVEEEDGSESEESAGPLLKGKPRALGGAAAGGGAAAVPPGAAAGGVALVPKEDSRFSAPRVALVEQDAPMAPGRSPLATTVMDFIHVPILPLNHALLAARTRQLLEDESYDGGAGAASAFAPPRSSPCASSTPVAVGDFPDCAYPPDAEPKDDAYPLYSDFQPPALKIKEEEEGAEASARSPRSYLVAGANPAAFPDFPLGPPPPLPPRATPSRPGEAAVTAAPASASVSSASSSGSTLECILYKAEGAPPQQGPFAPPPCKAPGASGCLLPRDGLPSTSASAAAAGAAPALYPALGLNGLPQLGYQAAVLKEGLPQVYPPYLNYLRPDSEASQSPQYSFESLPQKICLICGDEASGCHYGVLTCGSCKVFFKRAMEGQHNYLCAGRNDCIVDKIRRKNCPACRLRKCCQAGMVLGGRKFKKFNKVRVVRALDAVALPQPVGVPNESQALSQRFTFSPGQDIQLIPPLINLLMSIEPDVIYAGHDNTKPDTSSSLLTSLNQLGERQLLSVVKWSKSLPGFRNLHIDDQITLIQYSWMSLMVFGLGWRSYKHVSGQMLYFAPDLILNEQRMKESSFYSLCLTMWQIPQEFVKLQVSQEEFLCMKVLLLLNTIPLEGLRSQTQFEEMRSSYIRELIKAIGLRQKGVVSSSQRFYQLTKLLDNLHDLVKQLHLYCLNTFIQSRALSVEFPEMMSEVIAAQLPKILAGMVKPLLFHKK
Procedure: (2) Progesterone Receptor Whole Cell Competition Binding Assay Using T47D Cells
PURPOSE: To evaluate the progesterone receptor (PR) binding activity of progestins or antiprogestins in live, intact (whole) cells using the human breast carcinoma T47D cell line and ^3H-progesterone as the labeled ligand.
Culture Medium: • 5% RC: phenol red free DMEM:F12 (1:1) (GIBCO, BRL) supplemented with 5% (v/v) charcoal stripped fetal bovine serum (not heat-inactivated), 100 U/mL penicillin, 100 μg/mL streptomycin, and 2 mM the GlutaMax™ reagent (GIBCO, BRL). • 10% RC: Same as above supplemented with 10% (v/v) FBS. • ^3H-Progesterone: Perkin Elmer Life Science, cat# NET-381 (typically around 102 Ci/mmol)
T47D cells were maintained in 10% RC media at 37° C. in a 5% CO2/humidified atmosphere and were split twice weekly for proper response. Cells were plated in 10% RC the day before binding assay at 50,000 cells per well in the white, clear bottom plates purchased through VWR or Perkin Elmer.
Cells plated the day prior to the assay in white clear bottom plates were used. A master compound plate was set up containing control and test compounds at 20× final desired concentration for the competition binding. A typical dose range of 20× concentrations were (in nM); 200,000; 20,000; 6000; 2000; 600; 200; 20; and 2. Final concentrations were (in nM); 10,000; 1000; 300; 100; 30; 10; 1; 0.1. Control compounds were typically run 10-fold lower than this and include a 0, or vehicle, control well. A stock of 60 nM ^3H-progesterone (20×) were also prepared at a volume needed of 10 μL per well.
Media on cells were replaced with 180 μL of 5% RC. Ten microliters (10 μL) of 60 nM ^3H-progesterone (for final concentration of 3 nM) was added immediately, followed by 10 μL of 20× test or control compounds. Compounds were incubated for 3 h at 37° C. (A time course study found no difference between 2 and 4 h incubation.)
Following incubation, media was carefully removed and cells were washed 3× with 200 μL 5% RC each wash. Fifty microliters of liquid scintillation cocktail was added and the plates were shaken vigorously for a minimum of 15 min. Plates were read on the Wallac Microbeta® 1450 plate reader.
Square root-transformed data were used for analysis of variance and calculation of IC50. SAS software (SAS Institute, Inc.) was used for all the statistical analysis.
Progesterone was used as a reference progestin and RU486 as a reference antiprogestin.

| IC50 [1] [nM] | Ki [2] [nM] | melting point [°C] | SMILES | inhibition at 3 µM [1] [%] | inhibition at 0.003 µM ([1]; % inhibition at 3 nM) [%] |
| --- | --- | --- | --- | --- | --- |
| 24.6 | 55.3 | 196 to 198 | C[C@H]1COC(=O)N1c1nc(-c2ccc(Br)cc2)cs1 [Example 3, (4S)-3-[4-(4-Bromophenyl)-1,3-thiazol-2-yl]-4-methyl-1,3-oxazolidin-2-one] |  |  |
| 14.6 | 43.4 | 227 to 228 | C[C@@H]1COC(=O)N1c1nc(-c2ccc(C#N)cc2)cs1 [Example 2, 4-{2-[(4R)-4-Methyl-2-oxo-1,3-oxazolidin-3-yl]-1,3-thiazol-4-yl}benzonitrile] |  |  |
| 19.8 | 45.1 | 195 to 196 | N#Cc1ccc(-c2csc(N3C(=O)OC[C@H]3CF)n2)cc1 [Example 74, 4-{2-[(4S)-4-(Fluoromethyl)-2-oxo-1,3-oxazolidin-3-yl]-1,3-thiazol-4-yl}benzonitrile] |  |  |
| 23.3 | 128 | 134 to 137 | CCCCC1COC(=O)N1c1nc(-c2ccc(C#N)cc2)cs1 (stereo not drawn) [Example 48, 4-[2-(4-Butyl-2-oxo-1,3-oxazolidin-3-yl)-1,3-thiazol-4-yl]benzonitrile] |  |  |
| 23 | 75.3 | 138 to 140 | CC[C@H]1COC(=O)N1c1nc(-c2ccc(Br)cc2)cs1 [Example 7, (4S)-3-[4-(4-Bromophenyl)-1,3-thiazol-2-yl]-4-ethyl-1,3-oxazolidin-2-one] |  |  |
| 482 | 212 | 208 to 209 | N#Cc1ccc(-c2csc(N3C(=O)OC[C@@H]3C(F)(F)F)n2)cc1 [Example 66, 4-{2-[(4R)-2-oxo-4-(trifluoromethyl)-1,3-oxazolidin-3-yl]-1,3-thiazol-4-yl}benzonitrile] |  |  |
| 346 | 968 | 177 to 179 | O=C1OC[C@@H](Cc2ccccc2)N1c1nc(-c2ccc(Br)cc2)cs1 [Example 36, (4R)-4-Benzyl-3-[4-(4-bromophenyl)-1,3-thiazol-2-yl]-1,3-oxazolidin-2-one] |  |  |
| 31.6 | 170 |  | CC1(C)COC(=O)N1c1nc(-c2ccc(C#N)cc2F)cs1 [Example 79, 4-[2-(4,4-Dimethyl-2-oxo-1,3-oxazolidin-3-yl)-1,3-thiazol-4-yl]-3-fluorobenzonitrile] |  |  |
| 24.8 | 45.6 |  | CC1(C)COC(=O)N1c1nc(-c2ccc(Br)cc2F)cs1 [Example 78, 3-[4-(4-Bromo-2-fluorophenyl)-1,3-thiazol-2-yl]-4,4-dimethyl-1,3-oxazolidin-2-one] |  |  |
| 5.4 | 20 |  | O=C1OC[C@@H](CCl)N1c1nc(-c2ccc(Br)cc2)cs1 [Example 72, (4S)-3-[4-(4-Bromophenyl)-1,3-thiazol-2-yl]-4-(chloromethyl)-1,3-oxazolidin-2-one] |  |  |
| 21.9 |  | 126 to 128 | CC(C)C1COC(=O)N1c1nc(-c2ccc(C#N)cc2)cs1 (stereo not drawn) [Example 43, 4-[2-(4-Isopropyl-2-oxo-1,3-oxazolidin-3-yl)-1,3-thiazol-4-yl]benzonitrile] |  |  |
| 49.4 | 91.8 |  | O=C1OCC2(CCC2)N1c1nc(-c2ccc(Br)cc2)cs1 [Example 26, 5-[4-(4-Bromophenyl)-1,3-thiazol-2-yl]-7-oxa-5-azaspiro[3.4]octan-6-one] |  |  |
| 99 |  | 230 to 234 | CC1(C)COC(=O)N1c1nc(-c2sc(C#N)cc2Br)cs1 [Example 59, 4-Bromo-5-[2-(4,4-dimethyl-2-oxo-1,3-oxazolidin-3-yl)-1,3-thiazol-4-yl]thiophene-2-carbonitrile] |  |  |
|  |  | 153 to 155 | CCCCC1COC(=O)N1c1nc(-c2ccc(Br)cc2)cs1 (stereo not drawn) [Example 30, 3-[4-(4-Bromophenyl)-1,3-thiazol-2-yl]-4-butyl-1,3-oxazolidin-2-one] | 100 |  |
| 292 |  | 201 to 202 | O=C1OCC2(CC2)N1c1nc(-c2ccc(Br)cc2)cs1 [Example 24, 4-[4-(4-Bromophenyl)-1,3-thiazol-2-yl]-6-oxa-4-azaspiro[2.4]heptane-5-one] |  |  |
| 53.4 |  | 158 to 161 | CC1(C)COC(=N)N1c1nc(-c2ccc(C#N)cc2)cs1 [Example 63, 4-[2-(2-imino-4,4-dimethyl-1,3-oxazolidin-3-yl)-1,3-thiazol-4-yl]benzonitrile] |  |  |
| 1370 |  | 169 to 171 | CC1(C)COC(=O)N(c2nc(-c3ccc(Br)cc3)cs2)C1 [Example 39, 3-[4-(4-Bromophenyl)-1,3-thiazol-2-yl]-5,5-dimethyl-1,3-oxazinan-2-one] |  |  |
|  |  | 151 to 153 | CCC1(CC)COC(=O)N1c1nc(-c2ccc(C#N)cc2)c(F)s1 [Example 53, 4-[2-(4,4-Diethyl-2-oxo-1,3-oxazolidin-3-yl)-5-fluoro-1,3-thiazol-4-yl]benzonitrile] |  | 40 |
| 8.6 | 34.5 |  | CC1(C)COC(=O)N1c1nc(-c2ccc([N+](=O)[O-])cc2)cs1 [Example 80, 4,4-Dimethyl-3-[4-(4-nitrophenyl)-1,3-thiazol-2-yl]-1,3-oxazolidin-2-one] |  |  |
|  |  | 181 to 183 | CC1(C)COC(=O)N1c1nc(-c2cccc(C#N)c2)cs1 [Example 52, 3-[2-(4,4-dimethyl-2-oxo-1,3-oxazolidin-3-yl)-1,3-thiazol-4-yl]benzonitrile] | 95 |  |
| 3.1 |  | 183 to 185 | CC1(C)COC(=O)N1c1nc(-c2ccc(C#N)cc2)cs1 [Example 6, 4-[2-(4,4-Dimethyl-2-oxo-1,3-oxazolidin-3-yl)-1,3-thiazol-4-yl]benzonitrile] |  |  |
| 2.3 | ~2000 |  | CC1(C)COC(=O)N1c1nc(-c2ccc(C#N)c(F)c2)cs1 [Example 81, 4-[2-(4,4-Dimethyl-2-oxo-1,3-oxazolidin-3-yl)-1,3-thiazol-4-yl]-2-fluorobenzonitrile] |  |  |
| 372 | 584 |  | CC1(C)OCC(=O)N1c1nc(-c2ccc(Br)cc2)cs1 [Example 77, 3-[4-(4-Bromophenyl)-1,3-thiazol-2-yl]-2,2-dimethyl-1,3-oxazolidin-4-one] |  |  |
| 238 |  | 225 to 227 | O=C1OCCCN1c1nc(-c2ccc(Br)cc2)cs1 [Example 33, 3-[4-(4-Bromophenyl)-1,3-thiazol-2-yl]-1,3-oxazinan-2-one] |  |  |

| SMILES | IC50 [1] [nM] | Ki [2] [nM] | melting point [°C] | inhibition at 3 µM [1] [%] | inhibition at 0.003 µM ([1]; % inhibition at 3 nM) [%] |
| --- | --- | --- | --- | --- | --- |
| N#Cc1ccc(-c2csc(N3C(=O)OC[C@@H]3CC(F)(F)F)n2)cc1 [Example 68, 4-{2-[(4S)-2-Oxo-4-(2,2,2-trifluoroethyl)-1,3-oxazolidin-3-yl]-1,3-thiazol-4-yl}benzonitrile] | 29.1 |  | 235 to 238 |  |  |
